# Test results as given in patent US10711027B2, “DNA polymerase beta inhibitors” (The Johns Hopkins University, priority 2016, dated 2020).
# Values joined by “and” are separate entries in the source; they are usually repeats but may differ in a detail not shown here. Equal values may be shown once. “Also recorded” adds a separate entry of the source.
# Columns and labels:
# HeLa cells [1] = experiment: Clonogenic assay for cell survival; assay type: cell-based, human; settings: for cell death, individual treatment: pro-13 5 μM, pro-1 5 μM, MMS 0.1 mM; for enhancement (potentiation) of MMS cytotoxicity: compared to individual agents
# Experimental: HeLa (human cervical carcinoma) cells were maintained in Dulbecco's Modified Eagle's Medium (DMEM), supplemented with 10% fetal bovine serum (FBS), 100 U mL^−1 of penicillin and 100 μg mL^−1 of streptomycin at 37° C. in a humidified incubator at 5% CO2. […] At 90% confluency, there are around 1.5×10^7 cells in one dish of 150 mm×25 mm. Cell viability assay. […] After the indicated time, the medium was removed from the cell culture by aspiration, and washed once with PBS. A stock solution of bleomycin sulphate (1 mM) in DMSO was diluted in the culture medium to 2 μM and then added to the plates keeping the quantity of DMSO constant at 1% for all tests. Cells were then incubated for 2 h at 37° C. in a CO2 incubator. The medium was then subsequently replaced with fresh DMEM-FBS and incubation was continued for an additional 1 or 2 h at 37° C. in a CO2 incubator. […] A portion (10 μL) of the cell suspension was thoroughly mixed with 10 μL of 0.4% solution of trypan blue in PBS (pH 7.2 to 7.3), and placed on a counting slide (BIO-RAD) to count the % of live cells using a TC20 automated cell counter (BIO-RAD). A control experiment without treating with bleomycin sulphate was carried out in parallel. All the experiments were carried out at least 3 times, and each experiment consisted of 3 replicates.
# After overnight incubation at 37° C. in a humidified atmosphere of 5% CO2, cells were subjected to the appropriate DNA damaging conditions (or controls). For alkylation experiments, cells were incubated with MMS (0, 0.1, or 0.2 mM), with or without pro-13 (5 μM) for 1 or 2 h. For experiments involving recovery after MMS treatment, the medium containing MMS and/or pro-13 was replaced after 2 h with fresh medium with or without pro-13 (5 μM) and incubation continued for 2-8 h. For BLM experiments, cells were incubated with BLM (2 μM), with or without pro-13 (5 μM) for 2 h, at which time the medium was replaced with fresh medium containing only pro-13 (5 μM) and incubation was continued for 2 h. The growth medium was then removed from each well and the cells were washed with PBS (2×1 mL). […] The single cell suspensions were collected in 1.6 mL tubes and counted using a Bio-Rad TC20 Automated Cell Counter. Stock solutions of single cell suspensions were made in two groups for each concentration with 500 cells/mL (for untreated control) and 1500 cells/mL (for treated cells), respectively. These cells were seeded in 6 well plates (well size; 35 mm×18 mm) in 2 mL of 10% DMEM-FBS. The plates were incubated in humidified atmosphere with 5% CO2 for 7 days. After 7 days, the growth medium was discarded and the attached cells were treated with 0.2% w/v crystal violet solution. The excess dye was washed with water and the colonies were counted under a stereomicroscope. Plating efficiencies (PE) and survival fractions (SF) were calculated as follows: PE=number of colonies[…]number of cells seeded; SF=PE[…]PE (control).
# HeLa cells [2] = experiment: Comet assay to visualize DNA damage; assay type: cell-based, human; settings: BLM 2 μM 2 h
# Experimental: Bleomycin sulphate treatment of HeLa cells was carried out exactly in the same way as described above. The only difference was that approximately […] HeLa cells were plated in each well of the 6 wells culture plate. After the required incubation steps, the medium was aspirated from the cell culture, and washed with PBS (3×) by adding 5 mL of PBS to each well, scratching with a cell scraper (3 cm blade) and transferring the cells to a 15 mL Falcon tube. Cells were pelleted by centrifuging at 3000 g for 10 min at room temperature. Cells were resuspended in PBS and pelleted again. For the comet assay, cells were suspended in 2 mL PBS/well and counted (generally approximately 1×10^7/mL). An aliquot (10 μL) of the cell suspension was diluted to 1×10^5 cells/mL using PBS and used in an Oxiselect™ Comet Assay Kit (Cell Biolabs, INC. Catalog number STA-350) according to the product manual (www.cellbiolabs.com/sites/default/files/STA-350-comet-assay-kit.pdf). In brief, cell samples were combined with Comet Agarose at 1:10 ratio (v/v), titrurated with a pipette to mix, and immediately pipette 75 μL/well onto the OxiSelect™ Comet Slide. […] View slides by a fluorescence microscopy using a FITC filter. […] The relative tail lengths were determined with Open Comet software.
# Ape1 = Ape1 (Homo sapiens, UniProt P27695); experiment: Ape1 activity on a duplex containing AP; assay type: biochemical
# HeLa cells [3] = experiment: AP/dRP site accumulation in genomic DNA (aldehyde reactive probe); assay type: cell-based, human
# Excerpt: Evidence that pro-13 leads to BER inhibition in HeLa cells was obtained by determining its effect on the level of aldehyde reactive probe (ARP) sites (Table 1). ARP is routinely used to quantify AP sites in DNA, and has been employed to validate Ape1 inhibition, but dRP detection via this method was not known. Rai et al., 2012; Dorjsuren et al., 2012; Ide et al., 1993; Asaeda et al., 1998. […] Inhibition of Pol β (and/or Pol λ) should lead to a build-up of dRP sites instead of AP, which would be indistinguishable from AP using ARP (Scheme 11). […] The level of AP/dRP sites in the genomic DNA isolated from HeLa cells treated with MMS, pro-13 or a combination, was subsequently measured. Following treatment with the DNA damaging agent (1 h), the medium was replaced with fresh medium with or without pro-13 (5 μM), and the cells were incubated an additional 23 h. The level of ARP reactive sites increased approximately 3-fold when cells were treated with a combination of MMS and pro-13 compared to just the alkylating agent (Table 1), consistent with the inhibition of BER in cells treated with the proinhibitor.
# HeLa cells (approximately 1×10^7) were plated in 150 mm×25 mm dishes and treated with DMSO (1% final concentration), MMS (0.3 or 0.4 mM), or pro-13 (5 μM) alone or with a combination of MMS (0.3 or 0.4 mM), and pro-13 (5 μM) for 1 h at 37° C. The cellular medium was then replaced with fresh DMEM-FBS and incubation was continued for 23 h at 37° C. in a CO2 incubator in the absence or presence of pro-13 (5 μM). Cells were then harvested with 0.25% Trypsin-EDTA, and the genomic DNA of each sample was isolated according to Dojindo Genomic DNA isolation kit (www.dojindo.com/TechnicalManual/Manual_GKO3.pdf). The concentration of genomic DNA was measured at 260 nm and adjusted to 100 ng/μL. An aliquot of purified DNA (1 μg) was labeled with 10 μL of aldehyde reactive probe (ARP) reagent (N′-aminooxymethylcarbonylhydrazino-D-biotin), and AP/dRP sites were determined using the DNA damage quantification kit from Dojindo Molecular Technologies (DK02-12) by measuring the absorbance at 650 nm using an ELISA microplate reader (BioRad).
# Sequence of Ape1 (P27695 whole entry): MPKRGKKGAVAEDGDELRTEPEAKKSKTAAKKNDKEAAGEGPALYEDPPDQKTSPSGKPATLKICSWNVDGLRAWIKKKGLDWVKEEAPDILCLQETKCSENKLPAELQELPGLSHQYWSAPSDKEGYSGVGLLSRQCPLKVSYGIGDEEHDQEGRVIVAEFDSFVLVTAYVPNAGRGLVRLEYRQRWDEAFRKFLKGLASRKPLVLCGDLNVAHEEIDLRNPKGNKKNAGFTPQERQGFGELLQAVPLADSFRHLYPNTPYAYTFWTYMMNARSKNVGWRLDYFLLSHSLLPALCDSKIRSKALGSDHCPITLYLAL
molecule,measurement,setting,value
bleomycin [BLM],cell death,"HeLa cells [1]; BLM 2 μM alone 2 h, 2 h recovery",No observable cell death
same,DNA damage (tail length),HeLa cells [2],confirms DNA damage; also recorded: increase in the tail length
COc1cc(Cl)c(/C=N/OC2C[C@H](n3cc(CNC(=O)c4cc5c(O)cccc5cc4O)c(=O)[nH]c3=O)O[C@@H]2COP(=O)(O)OCC2C[C@H](O)O[C@@H]2O)c(Cl)c1O (stereo partly drawn) [Compound 13],effect on Ape1 activity,Ape1,does not affect
"COS(C)(=O)=O [MMS, methyl methanesulfonate, reference compound]","cell death, individual treatment",HeLa cells [1]; 2 h,15%
same,cells survived,"HeLa cells [1]; MMS 0.2 mM without proinhibitor, 2 h",25%
same,AP/dRP sites/10^5 bp,"HeLa cells [3]; HeLa, MMS 0.3 mM, no pro-13",9.2 ± 1.2 sites/10^5 bp
same,AP/dRP sites/10^5 bp,"HeLa cells [3]; HeLa, MMS 0.4 mM, no pro-13",11.0 ± 1.5 sites/10^5 bp
COc1cc(Cl)c(/C=N/OC2C[C@H](n3cc(CNC(=O)c4cc5c(O)cccc5cc4O)c(=O)[nH]c3=O)O[C@@H]2COP(=O)(O)OCC2C[C@H](OC(C)=O)O[C@@H]2OC(C)=O)c(Cl)c1O (stereo partly drawn) [pro-13],cytotoxicity of proinhibitor alone,HeLa cells [1]; 5 μM,modest cytotoxic effects
same,cell death,"HeLa cells [1]; 5 μM alone, 1 h",2%
same,cells survive,"HeLa cells [1]; 5 μM alone, 2 h",93%
same,synergism with MMS,"HeLa cells [1]; 5 μM, MMS 0.1 or 0.2 mM, 1 or 2 h",synergistic effects
same,cytotoxicity of proinhibitor alone,"HeLa cells [1]; 5 μM, listed as Pro-13",only slightly cytotoxic; also recorded: only weakly cytotoxic
same,"cell death, individual treatment",HeLa cells [1]; 2 h,7%
same,fraction cell survival relative to cells incubated in absence of pro-13,"HeLa cells [1]; MMS 0.1 mM + pro-13 2 h, then 4 h additional incubation with pro-13 5 μM",1/7
same,cells survive,"HeLa cells [1]; MMS 0.1 mM + pro-13 2 h, then 8 h additional incubation with pro-13 5 μM",0.20±0.02% and 0.2%
same,decrease in fraction cell survival,HeLa cells [1]; pro-13 5 μM + BLM 2 μM vs BLM alone,more than 2 fold
same,fraction survival,"HeLa cells [1]; pro-13 5 μM + MMS 0.1 mM, 2 h",0.23 and 0.21±0.04
same,fraction survival lower than expected from agents used separately,"HeLa cells [1]; pro-13 5 μM + MMS 0.1 mM, 2 h",approximately 3.4 fold
same,enhancement (potentiation) of MMS cytotoxicity,HeLa cells [1]; pro-13 5 μM + MMS 0.2 mM,~13 fold
same,enhancement (potentiation) of MMS cytotoxicity,"HeLa cells [1]; pro-13 5 μM + MMS 0.2 mM, listed as Pro-13",approximately 13 fold
same,cells survived,"HeLa cells [1]; pro-13 5 μM + MMS 0.2 mM, longer reaction time (2 h)",< 2%
same,cells survive,HeLa cells [1]; pro-13 5 μM co-incubated with BLM 2 μM,43%
same,abasic site repair,HeLa cells [3]; HeLa cells,inhibited
same,AP/dRP sites/10^5 bp,"HeLa cells [3]; HeLa, MMS 0.3 mM + pro-13 5 μM",28.0 ± 1.4 sites/10^5 bp
same,AP/dRP sites/10^5 bp,"HeLa cells [3]; HeLa, MMS 0.4 mM + pro-13 5 μM",33.0 ± 1.5 sites/10^5 bp
same,increase in ARP reactive (abasic) sites vs MMS alone,"HeLa cells [3]; HeLa, MMS + pro-13 5 μM",approximately 3 fold
same,AP/dRP sites/10^5 bp,"HeLa cells [3]; HeLa, pro-13 5 μM, no MMS",4.6 ± 1.0 sites/10^5 bp
